Data published in patent US4226879A, “Antibiotic composition” (Kyowa Hakko Kogyo Kabushiki Kaisha, priority 1976, dated 1980).
Converted amounts (≈) assume the structure as drawn.

How the values were obtained:
Eimeria acervulina = test: anticoccidial activity; type: in vivo
Eimeria brunetti = test: anticoccidial activity; type: in vivo
Xanthomonas oryzae = test: microbe, parasite or virus in culture; type: cell-based; conditions: 72 h, pH 6.8
[1] = test system: Aerobacter aerogenes IAM 1183; test: MIC, agar dilution method; type: cell-based; conditions: Klebsiella aerogenes, IAM1183; pH 7.0, 37° C., 18 hours
[2] = test system: Corynebacterium paurometabolum; test: MIC, agar dilution method; type: cell-based; conditions: Tsukamurella paurometabola; pH 7.0, 37° C., 18 hours
Salmonella typhimurium = test: MIC, agar dilution method; type: cell-based; conditions: Salmonella enterica, pH 7.0, 37° C., 18 hours
Gram-negative bacteria = test: growth inhibition, agar dilution method; type: cell-based; conditions: at concentration below 100 mcg/ml
Experimental: (§1) Table 1 indicates the antibacterial and antifungal activity of AM-1042 as minimum inhibitory concentration (mcg/ml) determined by the agar dilution method.
*Peptone 0.5%; meat extract 0.5%; agar 1.2% (pH 7.0), 37° C., 18

Eimeria tenella K-2 = test: anticoccidial test in chicks (Example 4); conditions: for Caecal lession (numbers of chicks), +: grade + (light); for Caecal lession (numbers of chicks), + / Caecal lession (numbers of chicks), ++ / Caecal lession (numbers of chicks), +++ / Caecal lession (numbers of chicks), -: groups of 10 chicks; for Caecal lession (numbers of chicks), ++: grade ++ (middle); for Caecal lession (numbers of chicks), +++: grade +++ (heavy); for Caecal lession (numbers of chicks), -: grade - (not infected)
[3] = test system: Proteus vulgaris IFO 3163; test: MIC, agar dilution method; type: cell-based; conditions: IFO3163, pH 7.0, 37° C., 18 hours
Eimeria necatrix = test: anticoccidial activity; type: in vivo
Cryptococcus neoformans = test: MIC, agar dilution method; type: cell-based; conditions: pH 6.8, 27° C. 72 hours
B. subtilis NRRL B-558 = test: MIC, agar dilution method; type: cell-based; conditions: Bacillus subtilis, NRRLB558; pH 7.0, 37° C., 18 hours
in vivo = conditions: mouse, ip
[4] = test system: Trichophyton mentagrophytes; test: MIC, agar dilution method; type: cell-based; conditions: pH 6.8, 27° C. 72 hours
Aspergillus niger = test: MIC, agar dilution method; type: cell-based; conditions: pH 6.8, 27° C. 72 hours
Staphylococcus aureus = test: antibacterial activity; type: cell-based
fungi = test: antifungal activity, agar dilution method; type: cell-based; conditions: at a concentration below 100 mcg/ml
Description: as §1
**Potato extract containing glucose 1.0% and agar 1.2% (pH 6.8),

O=C(/C=C/C=C/C=C/C1CCCCC1)NC1=CC(O)(/C=C/C=C/C=C/C(=O)NC2=C(O)CCC2=O)C2OC2C1=O (stereo not shown) [AM-1042]
activity upon coccidiosis (Eimeria acervulina): significantly active
activity upon coccidiosis (Eimeria brunetti): significantly active
MIC (Xanthomonas oryzae): > 100 µg/mL
MIC [1]: 100 µg/mL (≈ 183 µM)
MIC [2]: 1.56 µg/mL (≈ 2.85 µM)
MIC (Salmonella typhimurium): > 100 µg/mL
effect on Gram-negative bacteria (Gram-negative bacteria): no significant effect
Survival ratio (Eimeria tenella K-2; 0.00375 % in diet): 90%
Survival ratio (Eimeria tenella K-2; 0.005 % in diet): 90%
Survival ratio (Eimeria tenella K-2; 0.0075 % in diet): 100%
Survival ratio (Eimeria tenella K-2; 0.01 % in diet): 100%
Survival ratio (Eimeria tenella K-2; 0.015 % in diet): 100%
Survival ratio (Eimeria tenella K-2; 0.02 % in diet): 100%
Survival ratio (Eimeria tenella K-2; 0.03 % in diet): 100%
Caecal lession (numbers of chicks), + (Eimeria tenella K-2; 0.00375 % in diet): 1 numbers of chicks
Caecal lession (numbers of chicks), + (Eimeria tenella K-2; 0.005 % in diet): 3 numbers of chicks
Caecal lession (numbers of chicks), + (Eimeria tenella K-2; 0.0075 % in diet): 5 numbers of chicks
Caecal lession (numbers of chicks), + (Eimeria tenella K-2; 0.01 % in diet): 2 numbers of chicks
Caecal lession (numbers of chicks), ++ (Eimeria tenella K-2; 0.00375 % in diet): 4 numbers of chicks
Caecal lession (numbers of chicks), ++ (Eimeria tenella K-2; 0.005 % in diet): 4 numbers of chicks
Caecal lession (numbers of chicks), ++ (Eimeria tenella K-2; 0.0075 % in diet): 2 numbers of chicks
Caecal lession (numbers of chicks), +++ (Eimeria tenella K-2; 0.00375 % in diet): 5 numbers of chicks
Caecal lession (numbers of chicks), +++ (Eimeria tenella K-2; 0.005 % in diet): 3 numbers of chicks
Caecal lession (numbers of chicks), - (Eimeria tenella K-2; 0.0075 % in diet): 3 numbers of chicks
Caecal lession (numbers of chicks), - (Eimeria tenella K-2; 0.01 % in diet): 8 numbers of chicks
Caecal lession (numbers of chicks), - (Eimeria tenella K-2; 0.015 % in diet): 10 numbers of chicks
Caecal lession (numbers of chicks), - (Eimeria tenella K-2; 0.02 % in diet): 10 numbers of chicks
Caecal lession (numbers of chicks), - (Eimeria tenella K-2; 0.03 % in diet): 10 numbers of chicks
MIC [3]: > 100 µg/mL
activity upon coccidiosis (Eimeria necatrix): significantly active
MIC (Cryptococcus neoformans): > 100 µg/mL
MIC (B. subtilis NRRL B-558): > 100 µg/mL
LD50 (in vivo): 48.5 mg/kg
MIC [4]: 25 µg/mL (≈ 45.7 µM)
MIC (Aspergillus niger): > 100 µg/mL
activity upon Staphylococcus aureus (Staphylococcus aureus): active
activity on fungi (fungi): no significant activity
